# According to patent US8778961B2, “O-methylated rapamycin derivatives for alleviation and inhibition of lymphoproliferative disorders” (The Trustees of the University of Pennsylvania, priority 2000, dated 2014):
# Tests used:
# [1] = toxicity study in BALB/c and SCID mice; assay type: in vivo; settings: 5 milligrams per kilogram body weight per day
# From the text: Five- to seven-week-old immunodeficient SCID mice (C.B-17 and ICR) were purchased from Taconic (Germantown, N.J.) and housed at the University of Pennsylvania Animal Facility under pathogen-free conditions in a laminar air flow unit and supplied with sterile food and water. In the toxicity studies, 5-7 week old inbred BALB/c mice (Taconic) were used in addition to the SCID mice.
# Mice were sacrificed by exposure to FORANE™ (isoflurane, Ohmeda, Liberty Place, N.J.) on day 29 in the drug toxicity study, on day 40-55 in the tumor growth inhibition study or when tumors achieved approximately 2 centimeter diameter, or when ulceration of the skin, signs of severe respiratory distress, weakness, or lethargy appeared. Complete autopsy was performed on all mice at the end of the study regardless of their appearance. Tumor and internal organs (spleen, liver, lung, heart, kidney, small and large intestines, femoral bone for bone marrow) were fixed in 10% (v/v) formalin, embedded in paraffin, cut into […] sections, transferred to glass slides, and stained with hematoxylin and eosin. Representative tumor fragments were stained immunohistochemically by standard streptavidin-biotin complex technique using commercially available reagents (Research Genetics, Huntsville, Ala.), antibodies: anti-CD20 (L-26) and LMP-1 (both from DAKO, Carpinteria, Calif.) and Ki67 (mib1; Immunotech, Westbrook, Me.). EBV-encoded RNA (EBER-1), and detected using commercially available reagents.
# Previous studies have shown that a minimal effective dose of SDZ RAD in rats was 5 milligrams per kilogram body weight per day and >5 milligrams per kilogram body weight per day in the in kidney and heart transplant model, respectively, when SDZ RAD was used as a single immunosuppressive agent (Schuurman et al., 1997, Transplantation 64:32-5; Schuler et al. 1997, Transplantation 64: 36-42). In order to determine if prolonged exposure to SDZ RAD is non-toxic for mice, both immunocompetent and immunodeficient, a cohort of normal BALB/c mice were treated with the above dose of SDZ RAD for 28 days. Ten treated and 5 control, untreated mice were used in this study. Later SCID mice which were transplanted with human PTLD-like lymphomas and treated with SDZ RAD for up to 55 days were evaluated. Seven treated and 5 control untreated SCID mice were evaluated in this experiment. After receiving the final dose of the drug, all mice were sacrificed and the following organs were harvested for histopathologic evaluation to investigate for possible toxic effects: liver, spleen, kidney, small intestine, large intestine, heart, lung, and femoral bone for bone marrow.
# [2] = test system: PTLD-like B cell lines 20A, A1, A2D6, and LCL; test: cell cycle progression by propidium iodide flow cytometry; assay type: cell-based, human; settings: 48 hours
# Description: The cell lines to be examined were cultured with several concentrations of SDZ RAD (0 to 10 nanomolar) for 24-48 hours. The cells were washed with DPBS and stain solution (pH 7.2) containing 3% PEG 6000, 50 micrograms per milliliter DNA fluorochrome propidium iodide (PI; Calbiochem, San Diego, Calif.), annexin V-FITC as described (Douglas et al., 1998, Cytometry 32:57-65) 0.1% (v/v) TRITON™ X (Sigma, St. Louis, Mo.), 4 millimolar citrate buffer pH 7.8, and 360 units per milliliter RNase A (Worthington Biochemicals, Freehold, N.J.) for 30 minutes at 37 C. Next, salt solution pH 7.2 (3% w/v PEG 6000, PI 50 micrograms per milliliter, 0.1% v/v TRITON™ X, and 0.4 molar NaCl) was added, and the cells were incubated at 4° C. in the dark for 1 hour before flow cytometry analysis was performed, as described (Douglas et al., 1998, Cytometry 32:57-65; Kawamata et al., 1998, Blood 91:561-569; Pepper et al., 1998, Leuk. Res. 22:439-444).
# Rapamycin and, presumably, O-alkylated rapamycin derivatives such as SDZ RAD, block cell cycle progression at the early stage in normal T cells (Terada et al., 1993, J. Cell Physiol. 154:7-15; Flanagan et al., 1993, Ann. N.Y. Acad. Sci. 696:31-37). […] The effect was drug dose and cell-line type dependent. […] Percentages of cells in the later phases of the cell cycle (G2-M and S) were diminished proportionally. A1 and, to a lesser degree, A2D6 cell line were particularly sensitive to SDZ RAD. Four EBV^+ B-cell lines were cultured for 48 hours with 0-10 nanomolar SDZ RAD, labeled with propidium iodine, and analyzed by flow cytometry.
# [3] = BALB/c 28 days, SCID up to 55 days
compound,measurement,setting,value
"CO[C@H]1C[C@@H]2CC[C@@H](C)[C@@](O)(O2)C(=O)C(=O)N2CCCC[C@H]2C(=O)O[C@H]([C@H](C)C[C@@H]2CC[C@@H](OCCO)[C@H](OC)C2)CC(=O)[C@H](C)/C=C(\C)[C@@H](O)[C@@H](OC)C(=O)[C@H](C)C[C@H](C)/C=C/C=C/C=C/1C [SDZ RAD, 40-O-(2-hydroxy)ethyl-rapamycin]",growth and weight gain vs control group,[1]; [3],the same
same,visible signs of drug toxicity,[1]; [3],None of the treated mice
same,microscopic evaluation of organs,"[1]; liver, spleen, kidney, intestines, heart, lung, bone marrow",no pathologic changes
same,adverse effect of prolonged exposure,[1]; regardless of immune status,no adverse effect
same,"cell cycle progression at the early, G0/G1 phase","[2]; all 4 cell lines, 0-10 nanomolar",markedly inhibited
same,increase in the percentage of cells in G0/G1,[2]; highest dose 10 nanomolar,10-70%
same,increase in the percentage of cells in G0/G1,[2]; low doses 1-2 nanomolar,5-25
